Reference: patent publication US10988477B2 (Merck Patent GmbH, priority 2018, dated 2021)

Assays:
[1] = target: intracellular GCN2 (phosphorylation of the GCN2 substrate eIF2α) (Homo sapiens, UniProt Q9P2K8); assay: GCN2 cellular inhibition assay (AlphaScreen SureFire P-eIF2α Ser51, borrelidin-treated U2OS cells); format: cell-based; conditions: compounds of Formula IV; biomarker assay, phosphorylated eIF2α Ser51 in borrelidin-treated U2OS cells
How it was run: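 U2OS cells, adhered overnight, received compounds in 4-fold serial dilutions from 40 μM final, then 10 μM borrelidin for 1 h at 37 °C. Lysates were read by AlphaScreen for phospho-eIF2α Ser51; percent inhibition was set against borrelidin-only wells.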

GCN2 kinase = GCN2 kinase (Homo sapiens, UniProt Q9P2K8); assay: GCN2 enzyme inhibition assay (Transcreener ADP2 fluorescence polarization); format: biochemical; conditions: Enzyme activity for compounds of Formula IV; Ki(app), 280 μM ATP, 25° C.
Chain of GCN2 kinase (Q9P2K8 whole entry): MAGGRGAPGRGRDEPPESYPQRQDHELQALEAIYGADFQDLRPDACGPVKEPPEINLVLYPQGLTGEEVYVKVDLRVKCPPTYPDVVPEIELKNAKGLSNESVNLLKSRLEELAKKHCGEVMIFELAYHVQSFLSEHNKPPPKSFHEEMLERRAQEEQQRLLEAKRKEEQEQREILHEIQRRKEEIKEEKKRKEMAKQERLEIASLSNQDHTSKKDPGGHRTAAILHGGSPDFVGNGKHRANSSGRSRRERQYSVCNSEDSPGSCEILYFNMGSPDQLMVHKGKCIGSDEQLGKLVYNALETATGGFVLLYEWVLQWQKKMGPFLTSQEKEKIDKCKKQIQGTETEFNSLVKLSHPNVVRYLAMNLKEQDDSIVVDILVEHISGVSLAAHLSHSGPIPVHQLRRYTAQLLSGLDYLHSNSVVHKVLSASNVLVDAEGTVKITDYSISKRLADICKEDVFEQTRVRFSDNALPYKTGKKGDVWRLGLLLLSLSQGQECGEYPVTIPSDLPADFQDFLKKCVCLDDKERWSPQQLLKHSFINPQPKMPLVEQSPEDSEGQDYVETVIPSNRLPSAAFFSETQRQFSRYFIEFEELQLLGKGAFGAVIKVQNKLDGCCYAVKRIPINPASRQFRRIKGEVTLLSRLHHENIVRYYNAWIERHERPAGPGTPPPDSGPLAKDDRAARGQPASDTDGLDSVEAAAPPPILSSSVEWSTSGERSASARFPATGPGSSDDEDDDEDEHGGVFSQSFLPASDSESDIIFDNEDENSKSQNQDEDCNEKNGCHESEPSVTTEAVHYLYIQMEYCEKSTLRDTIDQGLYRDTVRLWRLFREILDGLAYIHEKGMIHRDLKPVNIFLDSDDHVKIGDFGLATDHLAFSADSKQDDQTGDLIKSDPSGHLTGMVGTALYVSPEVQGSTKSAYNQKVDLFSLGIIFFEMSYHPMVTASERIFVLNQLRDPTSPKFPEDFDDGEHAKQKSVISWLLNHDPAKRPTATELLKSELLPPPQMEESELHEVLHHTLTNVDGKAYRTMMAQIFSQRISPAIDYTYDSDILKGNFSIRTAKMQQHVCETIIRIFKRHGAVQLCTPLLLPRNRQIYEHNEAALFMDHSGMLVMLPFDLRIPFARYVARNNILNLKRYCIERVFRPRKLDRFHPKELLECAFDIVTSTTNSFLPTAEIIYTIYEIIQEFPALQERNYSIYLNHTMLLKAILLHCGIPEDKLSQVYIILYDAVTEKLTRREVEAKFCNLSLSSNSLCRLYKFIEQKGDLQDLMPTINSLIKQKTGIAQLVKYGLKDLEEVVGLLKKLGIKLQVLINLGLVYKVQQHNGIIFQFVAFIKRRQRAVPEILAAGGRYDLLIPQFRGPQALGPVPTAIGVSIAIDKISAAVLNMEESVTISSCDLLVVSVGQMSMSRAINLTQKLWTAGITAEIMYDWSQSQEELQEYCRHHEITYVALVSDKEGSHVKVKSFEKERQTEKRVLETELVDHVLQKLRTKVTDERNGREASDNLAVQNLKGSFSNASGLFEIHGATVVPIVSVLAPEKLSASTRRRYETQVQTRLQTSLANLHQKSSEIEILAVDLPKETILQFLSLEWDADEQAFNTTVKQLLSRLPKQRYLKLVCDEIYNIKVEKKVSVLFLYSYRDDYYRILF
How it was run: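 Inhibition of 4 nM GCN2 was measured with compound up to 8 μM final, ATP 280 μM and (RS)7 peptide 200 μM over a 1 h, 25 °C reaction. ADP FP readout; IC50 and Ki(app) calculated from percent inhibition.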

Chain of intracellular GCN2 (phosphorylation of the GCN2 substrate eIF2α) (Q9P2K8 whole entry): as above

SMILES | IC50 [1] [nM] | Ki (GCN2 kinase) [nM]
OC1CCCN(c2ccnc(-c3cnc4cnc(C(F)(F)F)cn34)n2)CC1 (centres unmarked) [IV-447, 1-(2-(6-(Trifluoromethyl)imidazo[1,2-a]pyrazin-3-yl)pyrimidin-4-yl)azepan-4-ol] | > 5000 | 100 to 1000
FC(F)(F)c1cn2c(-c3nccc(-c4cnn(C5CCOC5)c4)n3)cnc2cn1 (centres unmarked) [IV-449, 3-(4-(1-(Tetrahydrofuran-3-yl)-1H-pyrazol-4-yl)pyrimidin-2-yl)-6-(trifluoromethyl)imidazo[1,2-a]pyrazine] | > 5000 | 100 to 1000
O=C1NCC2CN(c3ccnc(-c4cnc5cnc(C(F)(F)F)cn45)n3)CCN12 (centres unmarked) [IV-480, 7-(2-(6-(Trifluoromethyl)imidazo[1,2-a]pyrazin-3-yl)pyrimidin-4-yl)hexahydroimidazo[1,5-a]pyrazin-3(2H)-one] | > 5000 | 100 to 1000
NCCC1CCCN(c2ccnc(-c3cnc4cnc(C(F)(F)F)cn34)n2)C1 (centres unmarked) [IV-488] | > 5000 | 100 to 1000
FC(F)(F)c1cn2c(-c3nccc(N4CCCC(n5ccnn5)C4)n3)cnc2cn1 (centres unmarked) [IV-493, 3-(4-(3-(1H-1,2,3-Triazol-1-yl)piperidin-1-yl)pyrimidin-2-yl)-6-(trifluoromethyl)imidazo[1,2-a]pyrazine] | > 5000 | 10 to 100
COCC1CCCN(c2ccnc(-c3cnc4cnc(C(F)(F)F)cn34)n2)C1 (centres unmarked) [IV-495, 3-(4-(3-(Methoxymethyl)piperidin-1-yl)pyrimidin-2-yl)-6-(trifluoromethyl)imidazo[1,2-a]pyrazine] | > 5000 | 100 to 1000
FC(F)(F)c1cn2c(-c3nccc(N4CC(c5cn[nH]c5)NC(C(F)(F)F)C4)n3)cnc2cn1 (centres unmarked) [IV-558, 3-(4-(3-(1H-Pyrazol-4-yl)-5-(trifluoromethyl)piperazin-1-yl)pyrimidin-2-yl)-6-(trifluoromethyl)imidazo[1,2-a]pyrazine] | > 5000 | 10 to 100
Cc1n[nH]c(C)c1C1CCN(c2ccnc(-c3cnc4cnc(C(F)(F)F)cn34)n2)C1 (centres unmarked) [IV-574, 3-(4-(3-(3,5-Dimethyl-1H-pyrazol-4-yl)pyrrolidin-1-yl)pyrimidin-2-yl)-6-(trifluoromethyl)imidazo[1,2-a]pyrazine] | > 5000 | 10 to 100
Cc1n[nH]cc1C1CCN(c2ccnc(-c3cnc4cnc(C(F)(F)F)cn34)n2)C1 (centres unmarked) [IV-575, 3-(4-(3-(3-Methyl-1H-pyrazol-4-yl)pyrrolidin-1-yl)pyrimidin-2-yl)-6-(trifluoromethyl)imidazo[1,2-a]pyrazine] | 500 to 5000 | 10 to 100
FC(F)(F)c1cn2c(-c3nccc(N4CCC(c5c[nH]nc5C5CC5)C4)n3)cnc2cn1 (centres unmarked) [IV-576, 3-(4-(3-(3-Cyclopropyl-1H-pyrazol-4-yl)pyrrolidin-1-yl)pyrimidin-2-yl)-6-(trifluoromethyl)imidazo[1,2-a]pyrazine] | 500 to 5000 | 10 to 100
CC1CN(c2cncc(-c3cnc4cnc(C(F)(F)F)cn34)n2)C(C)C(c2cn[nH]c2)N1 (centres unmarked) [IV-577, 3-(6-(2,5-Dimethyl-3-(1H-pyrazol-4-yl)piperazin-1-yl)pyrazin-2-yl)-6-(trifluoromethyl)imidazo[1,2-a]pyrazine] | 500 to 5000 | < 10
CNc1cc(N2CC(C)NC(c3cn[nH]c3)C2C)nc(-c2cnc3cnc(C(F)(F)F)cn23)n1 (centres unmarked) [IV-578, 6-(2,5-Dimethyl-3-(1H-pyrazol-4-yl)piperazin-1-yl)-N-methyl-2-(6-(trifluoromethyl)imidazo[1,2-a]pyrazin-3-yl)pyrimidin-4-amine] | 500 to 5000 | < 10
FC(F)(F)c1cn2c(-c3nccc(N4CCC(C5CCOC5)C4)n3)cnc2cn1 (centres unmarked) [IV-580, 3-(4-(3-(Tetrahydrofuran-3-yl)pyrrolidin-1-yl)pyrimidin-2-yl)-6-(trifluoromethyl)imidazo[1,2-a]pyrazine] | > 5000 | 10 to 100
NC(=O)C1CN(c2ccnc(-c3cnc4cnc(C(F)(F)F)cn34)n2)CC(F)(F)C1 (centres unmarked) [IV-582, 5,5-Difluoro-1-(2-(6-(trifluoromethyl)imidazo[1,2-a]pyrazin-3-yl)pyrimidin-4-yl)piperidine-3-carboxamide] | 500 to 5000 | 10 to 100
CC1CN(c2cccc(-c3cnc4cnc(C(F)(F)F)cn34)n2)C(C)C(c2cn[nH]c2)N1 (centres unmarked) [IV-583, 3-(6-(2,5-Dimethyl-3-(1H-pyrazol-4-yl)piperazin-1-yl)pyridin-2-yl)-6-(trifluoromethyl)imidazo[1,2-a]pyrazine] | 500 to 5000 | < 10
FC(F)(F)c1cn2c(-c3nccc(N4CCCC(c5cc[nH]n5)C4)n3)cnc2cn1 (centres unmarked) [IV-589, 3-(4-(3-(1H-Pyrazol-3-yl)piperidin-1-yl)pyrimidin-2-yl)-6-(trifluoromethyl)imidazo[1,2-a]pyrazine] | 500 to 5000 | 10 to 100
CP(C)(=O)C1CC(c2cn[nH]c2)CN(c2ccnc(-c3cnc4cnc(C(F)(F)F)cn34)n2)C1 (centres unmarked) [IV-590, (5-(1H-Pyrazol-4-yl)-1-(2-(6-(trifluoromethyl)imidazo[1,2-a]pyrazin-3-yl)pyrimidin-4-yl)piperidin-3-yl)dimethylphosphine oxide] | > 5000 | 100 to 1000
CP(C)(=O)C1CC(c2cn[nH]c2)CN(c2ccnc(-c3cnc4cnc(C(F)(F)F)cn34)n2)C1 (centres unmarked) [IV-591, (5-(1H-Pyrazol-4-yl)-1-(2-(6-(trifluoromethyl)imidazo[1,2-a]pyrazin-3-yl)pyrimidin-4-yl)piperidin-3-yl)dimethylphosphine oxide] | > 5000 | 100 to 1000

More lines, now with the values ahead:

IC50 [1] [nM] | Ki (GCN2 kinase) [nM] | SMILES
500 to 5000 | < 10 | Cc1[nH]ncc1C1CCCN(c2ccnc(-c3cnc4cnc(C(F)(F)F)cn34)n2)C1 (centres unmarked) [IV-452, 3-(4-(3-(5-Methyl-1H-pyrazol-4-yl)piperidin-1-yl)pyrimidin-2-yl)-6-(trifluoromethyl)imidazo[1,2-a]pyrazine]
500 to 5000 | 10 to 100 | CC1C(c2cn[nH]c2)NCCN1c1ccnc(-c2cnc3cnc(C(F)F)cn23)n1 (centres unmarked) [IV-454, 6-(Difluoromethyl)-3-(4-(2-methyl-3-(1H-pyrazol-4-yl)piperazin-1-yl)pyrimidin-2-yl)imidazo[1,2-a]pyrazine]
500 to 5000 | < 10 | FC(F)OC1CC(c2cn[nH]c2)CN(c2ccnc(-c3cnc4cnc(C(F)(F)F)cn34)n2)C1 (centres unmarked) [IV-466, 3-(4-(3-(Difluoromethoxy)-5-(1H-pyrazol-4-yl)piperidin-1-yl)pyrimidin-2-yl)-6-(trifluoromethyl)imidazo[1,2-a]pyrazine]
500 to 5000 | 10 to 100 | FC(F)OC1CC(c2cn[nH]c2)CN(c2ccnc(-c3cnc4cnc(C(F)(F)F)cn34)n2)C1 (centres unmarked) [IV-472, 3-(4-(3-(Difluoromethoxy)-5-(1H-pyrazol-4-yl)piperidin-1-yl)pyrimidin-2-yl)-6-(trifluoromethyl)imidazo[1,2-a]pyrazine]
< 500 | < 10 | CC1C(c2cn[nH]c2)CCCN1c1nccc(-c2cnc3cnc(C(F)(F)F)cn23)n1 (centres unmarked) [IV-485, 3-(2-(2-Methyl-3-(1H-pyrazol-4-yl)piperidin-1-yl)pyrimidin-4-yl)-6-(trifluoromethyl)imidazo[1,2-a]pyrazine]
500 to 5000 | 10 to 100 | FC(F)(F)c1cn2c(-c3nccc(N4CCC(c5cn[nH]c5)C4)n3)cnc2cn1 (centres unmarked) [IV-494, 3-(4-(3-(1H-Pyrazol-4-yl)pyrrolidin-1-yl)pyrimidin-2-yl)-6-(trifluoromethyl)imidazo[1,2-a]pyrazine]
< 500 | < 10 | Fc1n[nH]cc1C1CCN(c2ccnc(-c3cnc4cnc(C(F)(F)F)cn34)n2)C1 (centres unmarked) [IV-524, 3-(4-(3-(3-Fluoro-1H-pyrazol-4-yl)pyrrolidin-1-yl)pyrimidin-2-yl)-6-(trifluoromethyl)imidazo[1,2-a]pyrazine]
500 to 5000 | < 10 | CC1CN(c2ccnc(-c3cnc4cnc(C(F)(F)F)cn34)n2)C(C)C(c2c[nH]cn2)O1 (centres unmarked) [IV-525, 2-(1H-Imidazol-4-yl)-3,6-dimethyl-4-(2-(6-(trifluoromethyl)imidazo[1,2-a]pyrazin-3-yl)pyrimidin-4-yl)morpholine]
500 to 5000 | 10 to 100 | FC(F)(F)c1cn2c(-c3nccc(N4CCC=C(c5cnsc5)C4)n3)cnc2cn1 [IV-535, 4-(1-(2-(6-(Trifluoromethyl)imidazo[1,2-a]pyrazin-3-yl)pyrimidin-4-yl)-1,2,5,6-tetrahydropyridin-3-yl)isothiazole]
500 to 5000 | < 10 | N#Cc1n[nH]cc1C1=CCCN(c2ccnc(-c3cnc4cnc(C(F)(F)F)cn34)n2)C1 [IV-548, 4-(1-(2-(6-(Trifluoromethyl)imidazo[1,2-a]pyrazin-3-yl)pyrimidin-4-yl)-1,2,5,6-tetrahydropyridin-3-yl)-1H-pyrazole-3-carbonitrile]
500 to 5000 | 10 to 100 | CC1CN(c2cc(Cl)nc(-c3cnc4cnc(C(F)(F)F)cn34)n2)C(C)C(c2cn[nH]c2)N1 (centres unmarked) [IV-567, 3-(4-Chloro-6-(2,5-dimethyl-3-(1H-pyrazol-4-yl)piperazin-1-yl)pyrimidin-2-yl)-6-(trifluoromethyl)imidazo[1,2-a]pyrazine]
500 to 5000 | < 10 | FC(F)(F)c1cn2c(-c3nccc(N4CCC(c5c[nH]nc5C(F)(F)F)C4)n3)cnc2cn1 (centres unmarked) [IV-572, 6-(Trifluoromethyl)-3-(4-(3-(3-(trifluoromethyl)-1H-pyrazol-4-yl)pyrrolidin-1-yl)pyrimidin-2-yl)imidazo[1,2-a]pyrazine]
500 to 5000 | 10 to 100 | OCc1n[nH]cc1C1CCN(c2ccnc(-c3cnc4cnc(C(F)(F)F)cn34)n2)C1 (centres unmarked) [IV-573, (4-(1-(2-(6-(Trifluoromethyl)imidazo[1,2-a]pyrazin-3-yl)pyrimidin-4-yl)pyrrolidin-3-yl)-1H-pyrazol-3-yl)methanol]
